The test has as its target Cytochrome b6-f complex subunit 4 (Spinacia oleracea) (UniProt P00166). As to the kind of experiment: Inhibition of photosynthetic electron transport protein complex in Spinacia oleracea (spinach) leaf thylakoid membranes up to 100 uM measured at 30 seconds intervals for 10 min.

The text below walks through data of ChEMBL document CHEMBL3046472, “QSAR modeling of photosynthesis-inhibiting nostoclide derivatives” (Pest Manag Sci, 2010).

Active and inactive are the calls of the source. No cut-off for these calls is given here.

Cytochrome b6-f complex subunit 4 (Spinacia oleracea), sequence (P00166 whole entry, looked up, one chain of several): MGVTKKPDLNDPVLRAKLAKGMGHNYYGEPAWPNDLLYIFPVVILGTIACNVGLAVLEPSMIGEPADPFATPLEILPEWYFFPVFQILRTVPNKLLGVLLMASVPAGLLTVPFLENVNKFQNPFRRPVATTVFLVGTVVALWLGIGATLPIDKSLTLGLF

As for `O=C1O/C(=C\c2ccc(-c3ccccc3)cc2)C=C1Cc1ccccc1`, the inhibition result is “inactive”.
Then `N#Cc1cccc(/C=C2/C=C(Cc3ccccc3)C(=O)O2)c1`, with “inactive”; and `O=C1O/C(=C\c2ccc(O)cc2)C=C1Cc1ccccc1`, with “inactive”.
Turning to `O=C1O/C(=C\c2ccc3c(c2)OCO3)C=C1Cc1ccccc1`, the inhibition entry is “inactive”.
Turning to `O=C1O/C(=C\c2cccc(O)c2)C=C1Cc1ccccc1`, the inhibition result is “inactive”.
Take `Cc1ccc(/C=C2/C=C(Cc3ccccc3)C(=O)O2)cc1`: the inhibition result was “inactive”.
Turning to `O=C1O/C(=C\c2ccc(Br)cc2)C=C1Cc1ccccc1`, the inhibition result was “inactive”.
Then `N#Cc1ccc(/C=C2/C=C(Cc3ccccc3)C(=O)O2)cc1`, with “inactive”; and `CN(C)c1ccc(/C=C2/C=C(Cc3ccccc3)C(=O)O2)c(Cl)c1`, with “inactive”; and `O=C1O/C(=C\c2ccccc2O)C=C1Cc1ccccc1`, with “inactive”.
As for `CN(C)c1ccc(/C=C2/C=C(Cc3ccccc3)C(=O)O2)cc1`, the inhibition result is “inactive”.
For the compound `COc1ccc(/C=C2/C=C(Cc3ccccc3)C(=O)O2)cc1O`, the inhibition result is “inactive”.
As to `O=C1O/C(=C\c2ccc(Cl)cc2)C=C1Cc1ccccc1`, the inhibition entry was “inactive”.
